For test [1], the system named is KB human nasopharynx cancer. The test is described as follows: In vitro anti-tumor activity against KB human nasopharynx cancer (MTT). The class given is cell-based. The note with it: KB, 72 h, MTT, read-out: IC50. Here is the method:
(§1) A culture medium containing 500 to 2,000 human cancer cells was put in an amount of 0.1 ml in each well of 96-well plate, and the cells were cultured for 20 hours under a condition of 37° C. and 5% carbon dioxide gas in air. After the culturing, a solution of test compounds of predetermined concentration was added, and then, the cells were cultured for further 72 hours. After the culturing, an MTT (5 mg/ml) solution was added in an amount of 0.01 ml in the respective wells, and the cells were cultured for further 4 hours. The supernatants of the culture medium were removed by suction, and then, 0.1 ml of dimethyl sulfoxide was put in respective well to dissolve the formed formazan, and, moreover, 0.1 ml of dimethyl sulfoxide was added.

In test [2] the test system is murine P388 lymphocytic leukemia cells. The test is described as follows: In vitro anti-tumor activity against murine P388 lymphocytic leukemia cells (MTT, 72 h). The class given is cell-based. The note with it: Mus musculus; murine P388 cells, 72 h, MTT; read-out: IC50 (50% proliferation inhibitory concentration). Here is the method:
Test compounds were tested for anti-tumor activity according to MTT [3-(4,5-dimethylthiazol-2-yl)-2,5-diphenyltetrazolium bromide] method, using murine P388 lymphocytic leukemia cells. […] The culture medium was centrifuged (4° C., 2,000 rpm for 20 minutes), and thus, the supernatants were removed by suction. Then, 0.1 ml of dimethyl sulfoxide was put in each well to dissolve the formed formazan, and, subsequently, another 0.1 ml of dimethyl sulfoxide was added. The absorbance (OD) of each of the obtained solutions was measured by use of Multiskan Bichromatic (main wavelength 570 nm, sub-wavelength 690 nm). […] IC50 :μg/ml) were calculated by the least squares method.

In another test the test system is C33A human cervix cancer. Briefly: In vitro anti-tumor activity against C-33A human cervix cancer (MTT). The class given is cell-based. The note with it: C-33A, 72 h, MTT, read-out: IC50. Here is the method:
as §1

The next test relates to HMV2 human melanoma. The test is described as follows: In vitro anti-tumor activity against HMV-2 human melanoma (MTT). The note with it: HMV-2, 72 h, MTT, read-out: IC50. The class given is cell-based. Here is the method:
as §1

Test [3] has as its system MKN45 human stomach cancer. Briefly: In vitro anti-tumor activity against MKN45 human stomach cancer (MTT). The class given is cell-based. The note with it: MKN-45, MKN45, 72 h, MTT, read-out: IC50. Here is the method: as §1
Test [4] relates to WiDr human colorectal cancer. Briefly: In vitro anti-tumor activity against WiDr human colorectal cancer (MTT). The class given is cell-based. Particulars: 72 h, MTT, read-out: IC50. Here is the method:
as §1

Test [5] concerns colon 26 murine tumor cells. Briefly: Tumor growth inhibition effect on colon 26 murine tumor cells implanted mice. The note with it: Mus musculus, Colon 26, 504 h, ip, days 1-9, day 21 or 22, read-out: Tumor growth inhibition rate IR (%); for inhibition in vivo at 3.13 mg/kg: 3.13 mg/kg once a day. The class given is in vivo, SLC: CDF1 mice. Here is the method:
A 2% brei of colon 26 murine tumor cells was intracutaneously implanted each 0.1 ml in the abdominal part of SLC: CDF1 female mice (7 to 9 weeks old, 7 animals per one group). […] The obtained solutions were intraperitoneally (ip) administered each 0.2 ml once a day, from the day (1st day) following the implantation to the 9th day. On the 21st or 22nd day after the implantation, tumor weight was estimated from tumor diameters, and thus, the tumor growth inhibition rate (IR %) of the drug administered group in comparison with the control group was calculated according to the following equation. IR (%)=[1-{(MTW in the treated group)/(MTW in the control group)}]×10 0 MTW: mean tumor weight

A further test deals with A427 human lung cancer. The test is described as follows: In vitro anti-tumor activity against A-427 human lung cancer (MTT). The class given is cell-based. The note with it: A-427, 72 h, MTT, read-out: IC50. Here is the method: as §1
The subject of test [6] is murine P388 lymphocytic leukemia cells. Briefly: Increases in life span of mice implanted with murine P388 lymphocytic leukemia cells. The class given is in vivo, SLC: BDF1 mice. Particulars: Mus musculus, P388, ip, 720 h, ip. Here is the method: 1×10^6 murine P388 lymphocytic leukemia cells were intraperitoneally implanted in each of SLC: BDF1 mice (8 to 10 weeks old, female, 7 animals per one group). A test compound (drug) was either dissolved in 0.1 N--NaOH or suspended in 0.4% carboxymethylcellulose solution, and the resultant solution or suspension was diluted with distilled water or 0.4% carboxymethylcellulose solution so as to give predetermined concentrations for administration. The obtained solution was intraperitoneally (ip) administered twice, namely on the day following the implantation (1st day) and the 5th day, each 0.2 ml. The life and death of the mice were observed over a period of 30 days, and the median survival time (hereinafter referred to as MST) was determined for each group, and, thus, the increase in life span (ILS; %) was calculated according to the following equation:
ILS (%)=[{(MST of the test group)/(MST of the control group)}-1]×100
Drug effect was judged in the following manner, according to the criterion of U.S. National Cancer Institute (NCI):
ILS=75% or higher: ++ (remarkably effective);
20 to 74%: + (effective);
19% or lower: - (ineffective)

For test [7], the system named is AZ521 human stomach cancer. Briefly: In vitro anti-tumor activity against AZ-521 human stomach cancer (MTT). The class given is cell-based. Particulars: AZ-521, 72 h, MTT, read-out: IC50. Here is the method:
as §1

Where [8] appears, read: NCI criterion, read-out: Evaluation.
Setting [9] is: days 1 and 5, in suspension, read-out: ILS (%) (in suspension).
Where [10] appears, read: days 1 and 5, in solution, read-out: ILS (%) (in solution).

Values after ≈ are worked out from the molar mass of the structure shown. Read-outs that look alike come from different tables or passages of the source.

Consider `CN[C@@H]1CN(c2ccc3c(=O)c(C(=O)O)cn(-c4nccs4)c3n2)C[C@@H]1OC` (relative stereo) [Compound 1-4], for which the IC50 amounted to 0.147 µg/mL (≈ 0.366 µM) in [1]; 0.02 µg/mL (≈ 0.0498 µM) in [2]; 0.143 µg/mL (≈ 0.356 µM) in the test with C33A human cervix cancer; 0.197 µg/mL (≈ 0.491 µM) in the test with HMV2 human melanoma; 0.131 µg/mL (≈ 0.326 µM) in test [3]; 0.273 µg/mL (≈ 0.68 µM) in test [4]. Also, the IC50 was determined as 0.158 µg/mL (≈ 0.394 µM) in the test with A427 human lung cancer and 0.0985 µg/mL (≈ 0.245 µM) in [7]. Besides, the inhibition in vivo at 3.13 mg/kg in [5] came to 61%. For the same compound, the figures for the ILS at 3.13 mg/kg in test [6] (setting [8]) and in test [6] (setting [9]) were 20 to 74% and 25%, respectively. In addition, the ILS at 12.5 mg/kg in test [6] (setting [8]) is over 75%; in [6] (setting [9]) it was 100%.

In the case of `CN[C@@H]1CN(c2cc(N)c3c(=O)c(C(=O)O)cn(-c4nccs4)c3n2)C[C@H]1OC` (relative stereo) [Compound 15], the IC50 in test [1] came out at 0.0604 µg/mL (≈ 0.145 µM); in test [2], 0.0157 µg/mL (≈ 0.0377 µM); in the test on C33A human cervix cancer, 0.0854 µg/mL (≈ 0.205 µM); in the test with HMV2 human melanoma, 0.119 µg/mL (≈ 0.286 µM); in test [3] it was 0.0964 µg/mL (≈ 0.231 µM); in test [4] it was 0.259 µg/mL (≈ 0.622 µM). Moreover, the results for the IC50 (with A427 human lung cancer; in test [7]) were 0.0696 µg/mL (≈ 0.167 µM) and 0.0288 µg/mL (≈ 0.0692 µM), respectively. Besides, the inhibition in vivo at 3.13 mg/kg in [5] was 68%. Besides, the figures for the ILS at 3.13 mg/kg in test [6] (setting [8]) and in [6] (setting [9]) were over 75% and 88%, respectively. Moreover, the ILS at 12.5 mg/kg is over 75% in test [6] (setting [8]) and 200% in [6] (setting [9]). Besides, the ILS at 50 mg/kg in [6] (setting [8]) is over 75%; in [6] (setting [9]), 238%.

Take `CCN[C@@H]1CN(c2ccc3c(=O)c(C(=O)O)cn(-c4nccs4)c3n2)C[C@H]1OC` (relative stereo) [Compound 13]: the IC50 in test [1] came to 0.15 µg/mL (≈ 0.361 µM); in [2], 0.0252 µg/mL (≈ 0.0607 µM); with C33A human cervix cancer, 0.138 µg/mL (≈ 0.332 µM); with HMV2 human melanoma, 0.171 µg/mL (≈ 0.412 µM); in [3], 0.139 µg/mL (≈ 0.335 µM); in [4] it was 0.268 µg/mL (≈ 0.645 µM). The IC50 in the test on A427 human lung cancer amounted to 0.15 µg/mL (≈ 0.361 µM); in test [7], 0.0717 µg/mL (≈ 0.173 µM). Besides, the inhibition in vivo at 1.56 mg/kg in [5] (1.56 mg/kg once a day) was 41%. For the same compound, the values for the ILS at 3.13 mg/kg in test [6] (setting [8]) and in test [6] (setting [9]) were 20 to 74% and 25%, respectively. Besides, the figures for the ILS at 12.5 mg/kg in test [6] (setting [8]) and in test [6] (setting [9]) were over 75% and 100%, respectively. For the same compound, the ILS at 50 mg/kg in test [6] (setting [8]) is over 75%; in [6] (setting [9]), 213%.

Consider `CC1(N)CCN(c2ccc3c(=O)c(C(=O)O)cn(-c4nccs4)c3n2)C1` (stereo not drawn) [Compound 10], for which the IC50 in test [1] was 0.19 µg/mL (≈ 0.512 µM); in [2], 0.0192 µg/mL (≈ 0.0517 µM); with C33A human cervix cancer it was 0.247 µg/mL (≈ 0.665 µM); with HMV2 human melanoma, 0.386 µg/mL (≈ 1.04 µM); in [3] it was 0.468 µg/mL (≈ 1.26 µM); in [4] it was 0.797 µg/mL (≈ 2.15 µM). Besides, the figures for the IC50 (in the test with A427 human lung cancer; in test [7]) were 0.153 µg/mL (≈ 0.412 µM) and 0.292 µg/mL (≈ 0.786 µM), respectively. For the same compound, the inhibition in vivo at 3.13 mg/kg in test [5] was determined as 74%. Also, the ILS at 3.13 mg/kg is 20 to 74% in test [6] (setting [8]), 63% in [6] (setting [10]) and 50% in [6] (setting [9]). In addition, the ILS at 6.25 mg/kg was over 75% in [6] (setting [8]) and 75% in test [6] (setting [10]). Further, the ILS at 12.5 mg/kg in test [6] (setting [8]) was over 75%; in test [6] (setting [10]) it was 100%; in [6] (setting [9]), 113%. Further, the ILS at 25 mg/kg is over 75% in [6] (setting [8]) and 125% in test [6] (setting [10]). Also, the ILS at 50 mg/kg in test [6] (setting [8]) is over 75%; in [6] (setting [10]), over 275%.

For `NC1CCN(c2ncc3c(=O)c(C(=O)O)cn(-c4nccs4)c3n2)C1` (stereo not drawn) [Compound 14], the IC50 in [1] was determined as 0.636 µg/mL (≈ 1.77 µM); in [2], 0.0466 µg/mL (≈ 0.13 µM); in the test with HMV2 human melanoma it was 0.872 µg/mL (≈ 2.43 µM); in test [7], 0.31 µg/mL (≈ 0.865 µM). In [5], the inhibition in vivo at 3.13 mg/kg turned out to be 55%. For the same compound, the inhibition in vivo at 6.25 mg/kg in [5] (6.25 mg/kg once a day) turned out to be 68%. Moreover, the ILS at 3.13 mg/kg is 20 to 74% in test [6] (setting [8]) and 63% in [6] (setting [9]). Moreover, the ILS at 12.5 mg/kg was over 75% in [6] (setting [8]) and 113% in [6] (setting [9]). Moreover, the values for the ILS at 50 mg/kg in [6] (setting [8]) and in test [6] (setting [9]) were over 75% and over 275%, respectively.

Consider `CN[C@@H]1CN(c2ccc3c(=O)c(C(=O)O)cn(-c4nccs4)c3n2)C[C@H]1OC` (single isomer, unassigned) [Compound 1-2, (+)-1,4-Dihydro-7-(trans-3-methoxy-4-methylamino-1-pyrrolidinyl)-4-oxo-1-(2-thiazolyl)-1,8-naphthyridine-3-carboxylic acid], for which the IC50 worked out at 0.0873 µg/mL (≈ 0.217 µM) in test [1]; 0.00641 µg/mL (≈ 0.016 µM) in test [2]; 0.0828 µg/mL (≈ 0.206 µM) in the test on C33A human cervix cancer; 0.114 µg/mL (≈ 0.284 µM) with HMV2 human melanoma; 0.155 µg/mL (≈ 0.386 µM) in [3]; 0.357 µg/mL (≈ 0.889 µM) in test [4]. Besides, the IC50 worked out at 0.0925 µg/mL (≈ 0.23 µM) with A427 human lung cancer and 0.0396 µg/mL (≈ 0.0986 µM) in [7]. The inhibition in vivo at 1.1 mg/kg in test [5] (1.10 mg/kg once a day) was found to be 69%.

For `C[C@@H]1[C@@H](N)CCN1c1ccc2c(=O)c(C(=O)O)cn(-c3nccs3)c2n1` (relative stereo) [Compound 17], the ILS at 50 mg/kg was over 75% in test [6] (setting [8]) and 150% in test [6] (setting [9]).

These data come from patent publication US5817669A, “Compounds, processes for the preparation thereof and anti-tumor agents” (Dainippon Pharmaceutical Co., Ltd., priority 1994, dated 1998).
